Values of other authors as cited in publication PMC3889329 (Diabetes Therapy, 2013).

System: healthy subjects
Conditions: cited from earlier work

SMILES | Maximal UGE (200–800 mg qd, healthy subjects) [g/day] | Maximum UGE (multiple doses of 5–600 mg, healthy volunteers)
Cc1ccc([C@@H]2O[C@H](CO)[C@@H](O)[C@H](O)[C@H]2O)cc1Cc1ccc(-c2ccc(F)cc2)s1 [Canagliflozin] | 70 | –
OC[C@H]1O[C@@H](c2ccc(F)c(Cc3cc4ccccc4s3)c2)[C@H](O)[C@@H](O)[C@@H]1O [Ipragliflozin] | – | approximately 59 g/day
